Reference: patent publication US9283222B2 (priority 2006, dated 2016)

Biological target: Recombinant Human Poly(ADP-Ribose) Polymerase (PARP), PARP-1 (Homo sapiens (Human), UniProt P09874)
Conditions: read-out: PARP-1 (Ki); Table 1; text calls the values EC50s

Chain of Recombinant Human Poly(ADP-Ribose) Polymerase (PARP), PARP-1 (P09874 whole entry): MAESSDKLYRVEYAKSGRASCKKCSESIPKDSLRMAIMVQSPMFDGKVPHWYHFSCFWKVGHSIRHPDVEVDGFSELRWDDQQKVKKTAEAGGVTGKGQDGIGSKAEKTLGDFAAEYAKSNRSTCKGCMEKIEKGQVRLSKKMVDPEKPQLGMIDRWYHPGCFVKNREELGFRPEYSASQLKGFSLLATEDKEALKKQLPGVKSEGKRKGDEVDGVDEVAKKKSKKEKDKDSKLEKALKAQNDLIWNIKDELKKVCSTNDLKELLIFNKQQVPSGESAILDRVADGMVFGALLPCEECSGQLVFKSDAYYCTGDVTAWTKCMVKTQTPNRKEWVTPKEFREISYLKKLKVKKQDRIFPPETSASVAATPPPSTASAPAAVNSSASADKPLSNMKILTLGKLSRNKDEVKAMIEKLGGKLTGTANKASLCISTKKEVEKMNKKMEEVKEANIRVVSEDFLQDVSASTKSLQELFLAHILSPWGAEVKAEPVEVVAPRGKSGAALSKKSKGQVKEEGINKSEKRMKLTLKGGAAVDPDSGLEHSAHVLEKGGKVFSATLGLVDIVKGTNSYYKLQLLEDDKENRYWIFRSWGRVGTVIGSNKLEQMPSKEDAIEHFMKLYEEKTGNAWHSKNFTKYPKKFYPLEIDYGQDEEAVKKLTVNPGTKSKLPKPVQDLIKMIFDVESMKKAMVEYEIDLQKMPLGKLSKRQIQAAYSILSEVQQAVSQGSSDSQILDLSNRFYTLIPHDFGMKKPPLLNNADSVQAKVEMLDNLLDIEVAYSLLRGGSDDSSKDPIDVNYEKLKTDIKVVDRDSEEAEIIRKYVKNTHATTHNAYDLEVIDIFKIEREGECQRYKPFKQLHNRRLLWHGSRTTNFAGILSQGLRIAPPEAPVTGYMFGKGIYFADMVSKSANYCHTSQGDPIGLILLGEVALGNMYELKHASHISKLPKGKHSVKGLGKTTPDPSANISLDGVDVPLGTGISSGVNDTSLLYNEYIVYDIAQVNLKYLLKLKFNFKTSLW

Ki | Compound
286 nM | O=C(Nc1cccc(Cc2n[nH]c(=O)c3c2CCCC3)n1)c1ccccc1 [Example 126, N-(6-((4-oxo-3,4,5,6,7,8-hexahydrophthalazin-1-yl)methyl)pyridin-2-yl)benzamide]
2.7 nM | Cc1nc2cc(C(=O)N3CCCN(C(=O)c4cc(Cc5n[nH]c(=O)c6c5NCCC6)ccc4F)CC3)ccc2[nH]1 [Example 689, 8-[4-fluoro-3-({4-[(2-methyl-1H-benzimidazol-5-yl)carbonyl]-1,4-diazepan-1-yl}carbonyl)benzyl]-2,3,4,6-tetrahydropyrido[2,3-d]pyridazin-5(1H)-one]
56 nM | Cc1cc(Cl)ccc1OCC(=O)Nc1cccc(Cc2n[nH]c(=O)c3c2CCCC3)c1 [Example 171, 2-(4-chloro-2-methylphenoxy)-N-(3-((4-oxo-3,4,5,6,7,8-hexahydrophthalazin-1-yl)methyl)phenyl)acetamide]
403 nM | Cc1ccsc1C(=O)Nc1cccc(Cc2n[nH]c(=O)c3c2CCCC3)c1 [Example 198, 3-methyl-N-(3-((4-oxo-3,4,5,6,7,8-hexahydrophthalazin-1-yl)methyl)phenyl)thiophene-2-carboxamide]
1.2 nM | O=C1CCC(C(=O)N2CCN(C(=O)c3cc(Cc4n[nH]c(=O)c5c4CCCC5)ccc3F)CC2)N1 (stereo not drawn) [Example 675, 4-[4-fluoro-3-({4-[(5-oxopyrrolidin-2-yl)carbonyl]piperazin-1-yl}carbonyl)benzyl]-5,6,7,8-tetrahydrophthalazin-1(2H)-one]
1.3 nM | O=C(c1cc(Cc2n[nH]c(=O)c3c2CCCC3)ccc1F)N1CCN(S(=O)(=O)c2ccccc2)CC1 [Example 574, 4-(4-fluoro-3-{[4-(phenylsulfonyl)piperazin-1-yl]carbonyl}benzyl)-5,6,7,8-tetrahydrophthalazin-1(2H)-one]
335 nM | O=c1[nH]nc(CCc2ccccc2)c2c1CCCC2 [Example 255, 4-(2-phenylethyl)-5,6,7,8-tetrahydrophthalazin-1(2H)-one]
4 nM | O=C(NC1CCN(C(=O)c2ccco2)CC1)c1cc(Cc2n[nH]c(=O)c3c2NCCC3)ccc1F [Example 726, 2-fluoro-N-[1-(2-furoyl)piperidin-4-yl]-5-[(5-oxo-1,2,3,4,5,6-hexahydropyrido[2,3-d]pyridazin-8-yl)methyl]benzamide]
2.5 nM | O=C(c1cc(Cc2n[nH]c(=O)c3c2CCCC3)ccc1F)N1CCN(C(=O)C2CCCCC2)CC1 [Example 624, 4-(3-{[4-(cyclohexylcarbonyl)piperazin-1-yl]carbonyl}-4-fluorobenzyl)-5,6,7,8-tetrahydrophthalazin-1(2H)-one]
467 nM | COc1ccc(Cc2n[nH]c(=O)c3c2CCCC3)cc1N [Example 279, 4-(3-amino-4-methoxybenzyl)-5,6,7,8-tetrahydrophthalazin-1(2H)-one]
74 nM | Cc1cccc(OCC(=O)Nc2cccc(Cc3n[nH]c(=O)c4c3CCCC4)c2)c1 [Example 148, 2-(3-methylphenoxy)-N-(3-((4-oxo-3,4,5,6,7,8-hexahydrophthalazin-1-yl)methyl)phenyl)acetamide]
47 nM | CCOc1ccc(C(=O)Nc2cccc(Cc3n[nH]c(=O)c4c3CCCC4)c2)cc1OCC [Example 238, 3,4-diethoxy-N-(3-((4-oxo-3,4,5,6,7,8-hexahydrophthalazin-1-yl)methyl)phenyl)benzamide]
473 nM | CC(C)NC(=O)c1cc(Cc2n[nH]c(=O)c3c2CCCC3)ccn1 [Example 76, N-isopropyl-4-((4-oxo-3,4,5,6,7,8-hexahydrophthalazin-1-yl)methyl)pyridine-2-carboxamide]
609 nM | O=c1[nH]nc(Cc2ccc(-c3ccc(Cc4n[nH]c(=O)c5c4CCCC5)cn3)nc2)c2c1CCCC2 [Example 109, 4-((5′-((4-oxo-3,4,5,6,7,8-hexahydrophthalazin-1-yl)methyl)-2,2′-bipyridin-5-yl)methyl)-5,6,7,8-tetrahydrophthalazin-1(2H)-one]

Compound | Ki
CCN1CCN(C(=O)c2cccc(Cc3n[nH]c(=O)c4c3CCCC4)c2)CC1 [Example 436, 4-(3-((4-ethylpiperazin-1-yl)carbonyl)benzyl)-5,6,7,8-tetrahydrophthalazin-1(2H)-one] | 10 nM
